Source: patent US10004701B2, “Methods and compositions for treating infection” (UNIVERSITY OF ROCHESTER, priority 2012, dated 2018)
Converted amounts (≈) assume the structure as drawn. Where two headings read alike, the source gives them in different places.

Tests used:
K. pneumoniae = assay: AK assay 384-well format, Prestwick library screening; format: cell-based, Klebsiella pneumoniae; settings: Klebsiella pneumoniae, 3 h; planktonic K. pneumoniae; 50 μM final drug concentration; 384-well; cutoff for positive-scoring molecules 3-fold increase; read-out: AK-based Prestwick Library Screening Results: K. pneumoniae (increase in extracellular AK activity)
E. faecium = assay: as above; format: cell-based, Enterococcus faecium; settings: Enterococcus faecium, 3 h; planktonic E. faecium; 50 μM final drug concentration; 384-well; cutoff for positive-scoring molecules 3-fold increase; read-out: AK-based Prestwick Library Screening Results: E. faecium (increase in extracellular AK activity)
Escherichia coli 8295 [1] = assay: MIC testing; format: cell-based
P. aeruginosa = assay: AK assay 384-well format, Prestwick library screening; format: cell-based, Pseudomonas aeruginosa; settings: Pseudomonas aeruginosa, 3 h; planktonic P. aeruginosa; 50 μM final drug concentration; 384-well; cutoff for positive-scoring molecules 3-fold increase; read-out: AK-based Prestwick Library Screening Results: P. aeruginosa (increase in extracellular AK activity)
[2] = tested on: E. coli and each of the ESKAPE pathogens; assay: AK-based Prestwick library screening, summary across organisms; format: cell-based; settings: 50 μM, cutoff 3-fold increase in AK
[3] = tested on: Pseudomonas aeruginosa PA01; assay: AK assay 96-well format; format: cell-based
[4] = tested on: Acinetobacter baumannii 98-37-09; assay: MIC testing; format: cell-based; settings: Acinetobacter baumannii 98-37-09
[5] = tested on: Klebsiella pneumoniae cKP1; assay: MIC testing; format: cell-based; settings: Klebsiella pneumoniae cKP1
[6] = tested on: S. aureus strain USA300-0114; assay: AK assay 384-well format, Prestwick library screening; format: cell-based, Staphylococcus aureus; settings: Staphylococcus aureus, USA300, 3 h; planktonic S. aureus; 50 μM final drug concentration; 384-well; cutoff for positive-scoring molecules 3-fold increase; read-out: AK-based Prestwick Library Screening Results: S. aureus (increase in extracellular AK activity)
[7] = tested on: Enterococcus faecium 824-05; assay: MIC testing; format: cell-based; settings: Enterococcus faecium 824-05
E. coli = assay: AK assay 384-well format, Prestwick library screening; format: cell-based, Escherichia coli; settings: Escherichia coli, 3 h; planktonic E. coli; 50 μM final drug concentration; 384-well; cutoff for positive-scoring molecules 3-fold increase; read-out: AK-based Prestwick Library Screening Results: E. coli (increase in extracellular AK activity)
Staphylococcus aureus = assay: MIC testing; format: cell-based
[8] = tested on: Enterobacter cloacae PMD1001; assay: MIC testing; format: cell-based
[9] = tested on: Pseudomonas aeruginosa PA01; assay: MIC testing; format: cell-based
[10] = tested on: A. baumannii strain 98-37-09; assay: AK assay 384-well format, Prestwick library screening; format: cell-based, Acinetobacter baumannii; settings: Acinetobacter baumannii, 983709, 3 h; planktonic A. baumannii; 50 μM final drug concentration; 384-well; cutoff for positive-scoring molecules 3-fold increase; read-out: AK-based Prestwick Library Screening Results: A. baumannii (increase in extracellular AK activity)
E. cloacae = assay: as above; format: cell-based, Enterobacter cloacae; settings: Enterobacter cloacae, 3 h; planktonic E. cloacae; 50 μM final drug concentration; 384-well; cutoff for positive-scoring molecules 3-fold increase; read-out: AK-based Prestwick Library Screening Results: E. cloacae (increase in extracellular AK activity)
Escherichia coli 8295 [11] = assay: AK assay 96-well format; format: cell-based
[12] = tested on: A. baumannii strain 98-37-09 static biofilms; assay: AK assay of established biofilms (with plating); format: cell-based, Acinetobacter baumannii; settings: A. baumannii 98-37-09 biofilm; 10×MIC overnight; vs untreated
Method: Biofilms were grown as previously described (Beenken et al. Infect. Immun. 71: 4206-4211 (2003); Musken et al. Nat. Protoc. 5: […] (2010); Tomaras et al. Microbiology 149: 3473-3483 (2003)). Briefly, P. aeruginosa and A. baumannii were cultured overnight in Luria-Bertani medium and then used to seed 96-well, flat-bottom plates. Plates were incubated at 37° C. in a humidified incubator for 48 h to allow the formation of static biofilms. Nonadherent cells were removed by aspiration and washing with sterile phosphate-buffered saline (PBS). […] Following treatment, 100 μl of each biofilm supernatant was transferred to 96-well, white-walled plates, 100 μl of ToxiLight AK reagent was added to each well, mixtures were incubated for 30 min at room temperature, and luminescence was measured using a SpectraMax M5 plate reader. Biofilm-associated bacteria were enumerated by resuspending each biofilm in fresh PBS and plating. […] Established S. aureus biofilms were washed once with PBS and then treated with a 100 μl of ToxiLight lysis buffer for 3 h, after which the amount of AK released into supernatants was measured, as described above.
Following overnight antibiotic treatment, biofilm-associated bacteria were enumerated by plating, and the corresponding supernatants were analyzed by the AK assay.

[13] = tested on: Klebsiella pneumoniae cKP1; assay: AK assay 96-well format; format: cell-based
[14] = tested on: Enterobacter cloacae PMD1001; assay: AK assay 96-well format; format: cell-based
[15] = tested on: Acinetobacter baumannii 98-37-09; assay: AK assay 96-well format; format: cell-based; settings: for Fold increase in AK signal: Acinetobacter baumannii 98-37-09

## CC[C@H]1OC(=O)[C@H](C)[C@@H](O[C@H]2C[C@@](C)(OC)[C@@H](O)[C@H](C)O2)[C@H](C)[C@@H](O[C@@H]2O[C@H](C)C[C@H](N(C)C)[C@H]2O)[C@](C)(O)C[C@@H](C)C(=O)[C@H](C)[C@@H](O)[C@]1(C)O [Erythromycin, erythromycin]
K. pneumoniae
  fold induction at 50 µM: 1
E. faecium
  fold induction at 50 µM: 1
Escherichia coli 8295 [1]
  MIC: 256 µg/mL (≈ 349 µM)
P. aeruginosa
  fold induction at 50 µM: 0.7
[2]
  activity in AK Prestwick screen, all species tested: not identified as being active
[3]; treatment 0.5×MIC
  Fold increase in AK signal: 3 fold
[3]; treatment 1.0×MIC
  Fold increase in AK signal: 1 fold
[4]; 983709, read-out: MIC
  MIC: 16 µg/mL (≈ 21.8 µM)
[5]; read-out: MIC
  MIC: > 256 µg/mL
[6]
  fold induction at 50 µM: 8.2
[7]; 82405, read-out: MIC
  MIC: > 256 µg/mL
E. coli
  fold induction at 50 µM: 1
Staphylococcus aureus; Staphylococcus aureus
  MIC: 2 µg/mL (≈ 2.73 µM)
Staphylococcus aureus; Staphylococcus aureus USA300-0114, read-out: MIC
  MIC: 64 µg/mL (≈ 87.2 µM)
[8]
  MIC: 256 µg/mL (≈ 349 µM)
[9]; read-out: MIC
  MIC: 32 µg/mL (≈ 43.6 µM)
[10]
  fold induction at 50 µM: 1.5
E. cloacae
  fold induction at 50 µM: 1.6

## colistin
Escherichia coli 8295 [1]
  MIC: 8 µg/mL
Escherichia coli 8295 [11]; treatment 0.5×MIC
  Fold increase in AK signal: 15 fold
Escherichia coli 8295 [11]; treatment 1.0×MIC
  Fold increase in AK signal: 22 fold
[12]
  decrease in biofilm-associated bacteria (plating): 1.8 log
[13]; treatment 0.5×MIC
  Fold increase in AK signal: 34 fold
[13]; treatment 1.0×MIC
  Fold increase in AK signal: 33 fold
[14]; treatment 0.5×MIC
  Fold increase in AK signal: 10 fold
[14]; treatment 1.0×MIC
  Fold increase in AK signal: 32 fold
[3]; treatment 0.5×MIC
  Fold increase in AK signal: 5 fold
[3]; treatment 1.0×MIC
  Fold increase in AK signal: 12 fold
[4]
  MIC: 4 µg/mL
[5]
  MIC: 8 µg/mL
[7]
  MIC: >256 µg/mL
[15]; A. baumannii 98-37-09, 0.25×, 0.5×, and 1×MIC
  AK release: robustly detected
[15]; treatment 0.5×MIC
  Fold increase in AK signal: 17 fold
[15]; treatment 1.0×MIC
  Fold increase in AK signal: 49 fold
Staphylococcus aureus; Staphylococcus aureus RN4220
  MIC: >256 µg/mL
Staphylococcus aureus; Staphylococcus aureus USA300-0114
  MIC: >256 µg/mL
[8]
  MIC: 2 µg/mL
[9]
  MIC: 4 µg/mL
